Assay results: US7300946B2, “N-(substituted arylmethyl)-4-(disubstituted methyl) piperidines and pyridines” (Bayer CropScience AG, priority 2002, dated 2007)

Tested on: tobacco budworm (Heliothis virescens [Fabricius])
Assay: surface-treated diet test against the tobacco budworm
Format: in vivo
Details: tobacco budworm second instar larvae, surface-treated diet, 0.25 millimoles of candidate insecticide on the surface of the diet, five-day exposure; for Percent Mortality: compared to total number of insects infested; for Percent Growth Inhibition: inhibition of insect weight relative to untreated controls
Method in brief: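 Wheat germ artificial diet surface-treated with 40 µL of 50 mM DMSO stock diluted 1:7 in 1:1 water/acetone (0.25 millimolar on diet), or sub-multiples for rate tests. One second-instar larva per well, 25° C, 60% RH, 5 days; percent weight inhibition vs DMSO controls and percent mortality.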

Compound	Percent Mortality	Percent Growth Inhibition
Cn1nnc(-c2ccc(CN3CCC(C(Oc4ccc(C(F)(F)F)cn4)c4ccc(OC(F)(F)F)cc4)CC3)cc2)n1 (stereo not shown) [Compound 434, 2-[(1-{[4-(2-methyl(1,2,3,4-tetraazol-5-yl))phenyl]methyl}(4-piperidyl))[4-(trifluoromethoxy)phenyl]methoxy]-5-(trifluoromethyl)pyridine]	100%	100%
Cn1nnc(-c2ccc(CN3CCC(C(Oc4ccc(Cl)cn4)c4ccc(C(F)(F)F)cc4)CC3)cc2)n1 (stereo not shown) [Compound 435]	100%	100%
O=C(Nc1ccccn1)OC(c1ccc(C(F)(F)F)cc1)C1CCN(Cc2ccc(Oc3ccccn3)cc2)CC1 (stereo not shown) [Compound 436]	50%	100%
FC(F)(F)c1ccc(C(Oc2ccc(C(F)(F)F)cn2)C2CCN(Cc3ccc(Oc4ccccn4)cc3)CC2)cc1 (stereo not shown) [Compound 437]	100%	100%
FC(F)(F)c1ccc(C(Oc2cc(C(F)(F)F)ccn2)C2CCN(Cc3ccc(Oc4ccccn4)cc3)CC2)cc1 (stereo not shown) [Compound 438]	100%	100%
O=C(Nc1ccc(Cl)cn1)OC(c1ccc(C(F)(F)F)cc1)C1CCN(Cc2ccc(Oc3ccccn3)cc2)CC1 (stereo not shown) [Compound 439]	100%	100%
FC(F)(F)c1ccc(C(Oc2ccc(C(F)(F)F)cn2)C2CCN(Cc3ccc(Oc4ccc(Cl)nn4)cc3)CC2)cc1 (stereo not shown) [Compound 440]	100%	100%
FC(F)(F)c1ccc(C(Oc2cc(C(F)(F)F)ccn2)C2CCN(Cc3ccc(Oc4ccc(Cl)nn4)cc3)CC2)cc1 (stereo not shown) [Compound 441]	100%	100%
[O-][N+]1(Cc2ccc(Oc3ccccn3)cc2)CCC(C(Oc2ccc(C(F)(F)F)cn2)c2ccc(C(F)(F)F)cc2)CC1 (stereo not shown) [Compound 442]	100%	100%
FC(F)(F)c1ccc(C(Oc2cncc(Cl)c2)C2CCN(Cc3ccc(Oc4ccccn4)cc3)CC2)cc1 (stereo not shown) [Compound 443]	33%	100%
O=C(Nc1cccnc1)OC(c1ccc(C(F)(F)F)cc1)C1CCN(Cc2ccc(Oc3ccccn3)cc2)CC1 (stereo not shown) [Compound 444]	0%	96%
O=C(Nc1ccc(Cl)nc1)OC(c1ccc(C(F)(F)F)cc1)C1CCN(Cc2ccc(Oc3ccccn3)cc2)CC1 (stereo not shown) [Compound 445]	100%	100%
N#Cc1ccc(NC(=O)OC(c2ccc(C(F)(F)F)cc2)C2CCN(Cc3ccc(Oc4ccccn4)cc3)CC2)cn1 (stereo not shown) [Compound 446]	17%	100%
O=C(Nc1cccnc1Cl)OC(c1ccc(C(F)(F)F)cc1)C1CCN(Cc2ccc(Oc3ccccn3)cc2)CC1 (stereo not shown) [Compound 447]	100%	100%
O=C(Nc1ccc(C(F)(F)F)nc1)OC(c1ccc(C(F)(F)F)cc1)C1CCN(Cc2ccc(Oc3ccccn3)cc2)CC1 (stereo not shown) [Compound 448]	100%	100%
O=C(Nc1ccncc1)OC(c1ccc(C(F)(F)F)cc1)C1CCN(Cc2ccc(Oc3ccccn3)cc2)CC1 (stereo not shown) [Compound 450]	0%	62%
O=C(Nc1cc(Cl)nc(Cl)c1)OC(c1ccc(C(F)(F)F)cc1)C1CCN(Cc2ccc(Oc3ccccn3)cc2)CC1 (stereo not shown) [Compound 451]	100%	100%
FC(F)(F)c1ccc(C(Oc2ccc(Cl)nn2)C2CCN(Cc3ccc(Oc4ccccn4)cc3)CC2)cc1 (stereo not shown) [Compound 452]	67%	100%
Cn1nnc(-c2ccc(CN3CCC(C(Oc4ccc(Cl)nn4)c4ccc(OC(F)(F)F)cc4)CC3)cc2)n1 (stereo not shown) [Compound 453]	83%	100%
CCON=Cc1ccc(CN2CCC(C(Oc3ccc(C(F)(F)F)cc3)c3ccc(C(F)(F)F)cc3)CC2)cc1 (stereo not shown) [Compound 454]	100%	100%
FC(F)(F)c1ccc(OC(c2ccc(C(F)(F)F)cc2)C2CCN(Cc3ccc(Oc4ccccn4)cc3)CC2)cc1 (stereo not shown) [Compound 455]	100%	100%
FC(F)(F)Oc1ccc(C(Oc2ccc(C(F)(F)F)cc2)C2CCN(Cc3ccc(Oc4ncccn4)cc3)CC2)cc1 (stereo not shown) [Compound 456]	17%	100%

Compound	Percent Mortality	Percent Growth Inhibition
CC(C)OC(=O)Nc1ccc(COC(c2ccc(C(F)(F)F)cc2)C2CCN(Cc3ccc(NC(=O)OC(C)C)cc3)CC2)cc1 (stereo not shown) [Compound 457]	0%	16%
O=C(Nc1ccc(F)cc1)OC(c1ccc(OC(F)(F)F)cc1)C1CCN(Cc2ccccc2)CC1 (stereo not shown) [Compound 458]	0%	94%
O=C(Nc1ccc(F)cc1)OC(c1ccc(OC(F)(F)F)cc1)C1CCN(Cc2ccc(Cl)cc2)CC1 (stereo not shown) [Compound 459]	0%	99%
O=C(Nc1cc(F)cc(F)c1)OC(c1ccc(OC(F)(F)F)cc1)C1CCN(Cc2ccc(Cl)cc2)CC1 (stereo not shown) [Compound 460]	0%	100%
O=C(Nc1cc(F)cc(F)c1)OC(c1ccc(OC(F)(F)F)cc1)C1CCN(Cc2ccc(F)cc2)CC1 (stereo not shown) [Compound 461]	0%	98%
O=C(Nc1cc(F)cc(F)c1)OC(c1ccc(OC(F)(F)F)cc1)C1CCN(Cc2ccc(I)cc2)CC1 (stereo not shown) [Compound 462]	83%	100%
O=C(Nc1ccc(Cl)cc1)OC(c1ccc(C(F)(F)F)cc1)C1CCN(Cc2ccc(O)cc2)CC1 (stereo not shown) [Compound 463]	0%	65%
O=C(Nc1cc(F)cc(F)c1)OC(c1ccc(C(F)(F)F)cc1)C1CCN(Cc2ccc(O)cc2)CC1 (stereo not shown) [Compound 464]	0%	63%
Nc1ccc(CN2CCC(C(OC(=O)Nc3ccc(Cl)cc3)c3ccc(C(F)(F)F)cc3)CC2)cc1 (stereo not shown) [Compound 465]	0%	92%
Nc1ccc(CN2CCC(C(OC(=O)Nc3cc(F)cc(F)c3)c3ccc(C(F)(F)F)cc3)CC2)cc1 (stereo not shown) [Compound 466]	17%	77%
CCCCCc1ccc(CN2CCC(C(OC(=O)Nc3cc(F)cc(F)c3)c3ccc(C(F)(F)F)cc3)CC2)cc1 (stereo not shown) [Compound 467]	0%	68%
COc1ccc(CN2CCC(C(OC(=O)Nc3ccc(F)cc3)c3ccc(OC(F)(F)F)cc3)CC2)cc1 (stereo not shown) [Compound 468]	33%	100%
COc1ccc(CN2CCC(C(OC(=O)Nc3cc(F)cc(F)c3)c3ccc(OC(F)(F)F)cc3)CC2)cc1 (stereo not shown) [Compound 469]	17%	100%
CCCOc1ccc(CN2CCC(C(OC(=O)Nc3ccc(Cl)cc3)c3ccc(Cl)cc3)CC2)cc1 (stereo not shown) [Compound 470]	100%	100%
CCCOc1ccc(CN2CCC(C(OC(=O)Nc3ccc(F)cc3)c3ccc(Cl)cc3)CC2)cc1 (stereo not shown) [Compound 471]	100%	100%
CCCOc1ccc(CN2CCC(C(OC(=O)Nc3cccc(C(F)(F)F)c3)c3ccc(Cl)cc3)CC2)cc1 (stereo not shown) [Compound 472]	100%	100%
CCCOc1ccc(CN2CCC(C(OC(=O)Nc3ccc(C(F)(F)F)cc3)c3ccc(Cl)cc3)CC2)cc1 (stereo not shown) [Compound 473]	100%	100%
CCCOc1ccc(CN2CCC(C(OC(=O)Nc3cc(F)cc(F)c3)c3ccc(Cl)cc3)CC2)cc1 (stereo not shown) [Compound 474]	100%	100%
CCCOc1ccc(CN2CCC(C(OC(=O)Nc3ccc(Cl)cc3)c3ccc(F)cc3)CC2)cc1 (stereo not shown) [Compound 475]	100%	100%
CCCOc1ccc(CN2CCC(C(OC(=O)Nc3ccc(F)cc3)c3ccc(F)cc3)CC2)cc1 (stereo not shown) [Compound 476]	100%	100%
CCCOc1ccc(CN2CCC(C(OC(=O)Nc3cccc(C(F)(F)F)c3)c3ccc(F)cc3)CC2)cc1 (stereo not shown) [Compound 477]	100%	100%
CCCOc1ccc(CN2CCC(C(OC(=O)Nc3ccc(C(F)(F)F)cc3)c3ccc(F)cc3)CC2)cc1 (stereo not shown) [Compound 478]	100%	100%
